Article PMC7770057 (Journal of medicinal chemistry, 2020)
Entries after “also recorded” stand apart in the source; their conditions may differ.

How the values were obtained:
HT-29 cells = test: Antiproliferation; settings: for antiproliferation potency improvement over comparator: HT-29, 3 vs 14, 24 vs 3, 25 vs 22, 26 vs 3, 27 vs 23; for GI50: Homo sapiens, HT-29, 72 h, read-out: HT-29 GI50; for antiproliferation potency compared to compound 28: HT-29 cells
MEK1/2 = MEK1/2 protein levels in cells by Western blot; settings: HT-29 cells, 0.3, 1 and 3 μM, 24 h
[1] = In vivo mouse PK study, single IP injection; set-up: species or system male Swiss Albino mice; settings: mice, single IP 50 mg/kg; for tolerability: no clinical signs or adverse effects observed

Compound | MEK1/2 degradation (Western blot, words) (MEK1/2) | antiproliferation potency compared to compound 28 (HT-29 cells) | other results
Cc1ncsc1-c1ccc([C@H](C)NC(=O)[C@@H]2C[C@@H](O)CN2C(=O)[C@@H](NC(=O)CCCCCCCCCCNCCCONC(=O)c2ccc(F)c(F)c2Nc2ccc(I)cc2F)C(C)(C)C)cc1 [Compound 3] |  |  | antiproliferation potency improvement over comparator (HT-29 cells): 3 fold
Cc1ncsc1-c1ccc(CNC(=O)[C@@H]2C[C@@H](O)CN2C(=O)[C@@H](NC(=O)CCCCCCCNCCCONC(=O)c2ccc(F)c(F)c2Nc2ccc(I)cc2F)C(C)(C)C)cc1 [Compound 11, (2S,4R)-1-((S)-17-(tert-Butyl)-1-(3,4-difluoro-2-((2-fluoro-4-iodophenyl)amino)phenyl)-1,15-dioxo-3-oxa-2,7,16-triazaoctadecan-18-oyl)-4-hydroxy-N-(4-(4-methylthiazol-5-yl)benzyl)pyrrolidine-2-carboxamide] | effectively degraded MEK1 and MEK2 proteins |  | 
Cc1ncsc1-c1ccc(CNC(=O)[C@@H]2C[C@@H](O)CN2C(=O)[C@@H](NC(=O)CCCCCCCCCNCCCONC(=O)c2ccc(F)c(F)c2Nc2ccc(I)cc2F)C(C)(C)C)cc1 [Compound 13, (2S,4R)-1-((S)-19-(tert-Butyl)-1-(3,4-difluoro-2-((2-fluoro-4-iodophenyl)amino)phenyl)-1,17-dioxo-3-oxa-2,7,18-triazaicosan-20-oyl)-4-hydroxy-N-(4-(4-methylthiazol-5-yl)benzyl)pyrrolidine-2-carboxamide] | effectively degraded MEK1 and MEK2 proteins |  | 
Cc1ncsc1-c1ccc([C@H](C)NC(=O)[C@@H]2C[C@@H](O)CN2C(=O)[C@@H](NC(=O)CCCCCCCCCCN(C)CCCONC(=O)c2ccc(F)c(F)c2Nc2ccc(I)cc2F)C(C)(C)C)cc1 [Compound 24, (2S,4R)-1-((S)-20-(tert-Butyl)-1-(3,4-difluoro-2-((2-fluoro-4-iodophenyl)amino)phenyl)-7-methyl-1,18-dioxo-3-oxa-2,7,19-triazahenicosan-21-oyl)-4-hydroxy-N-((S)-1-(4-(4-methylthiazol-5-yl)phenyl)ethyl)pyrrolidine-2-carboxamide] |  |  | tolerability [1]: very well tolerated
Cc1ncsc1-c1ccc([C@H](C)NC(=O)[C@@H]2C[C@@H](O)CN2C(=O)[C@@H](NC(=O)CCCCCCCCCNCCCCONC(=O)c2ccc(F)c(F)c2Nc2ccc(I)cc2F)C(C)(C)C)cc1 [Compound 25, (2S,4R)-1-((S)-20-(tert-Butyl)-1-(3,4-difluoro-2-((2-fluoro-4-iodophenyl)amino)phenyl)-1,18-dioxo-3-oxa-2,8,19-triazahenicosan-21-oyl)-4-hydroxy-N-((S)-1-(4-(4-methylthiazol-5-yl)phenyl)ethyl)pyrrolidine-2-carboxamide] |  |  | antiproliferation potency improvement over comparator (HT-29 cells): about 4 fold
Cc1ncsc1-c1ccc([C@H](C)NC(=O)[C@@H]2C[C@@H](O)CN2C(=O)[C@@H](NC(=O)CCCCCCCCCCNCCCCONC(=O)c2ccc(F)c(F)c2Nc2ccc(I)cc2F)C(C)(C)C)cc1 [Compound 26, (2S,4R)-1-((S)-21-(tert-Butyl)-1-(3,4-difluoro-2-((2-fluoro-4-iodophenyl)amino)phenyl)-1,19-dioxo-3-oxa-2,8,20-triazadocosan-22-oyl)-4-hydroxy-N-((S)-1-(4-(4-methylthiazol-5-yl)phenyl)ethyl)pyrrolidine-2-carboxamide] |  |  | antiproliferation potency improvement over comparator (HT-29 cells): ~3 fold
Cc1ncsc1-c1ccc([C@H](C)NC(=O)[C@@H]2C[C@@H](O)CN2C(=O)[C@@H](NC(=O)CCCCCCCCCCCNCCCCONC(=O)c2ccc(F)c(F)c2Nc2ccc(I)cc2F)C(C)(C)C)cc1 [Compound 27, (2S,4R)-1-((S)-22-(tert-Butyl)-1-(3,4-difluoro-2-((2-fluoro-4-iodophenyl)amino)phenyl)-1,20-dioxo-3-oxa-2,8,21-triazatricosan-23-oyl)-4-hydroxy-N-((S)-1-(4-(4-methylthiazol-5-yl)phenyl)ethyl)pyrrolidine-2-carboxamide] |  |  | clearance comparison [1]: cleared more slowly than compound 24; plasma exposure comparison ([1]; 8 h period, 50 mg/kg): better plasma exposure than compound 24; also recorded: higher than that of the previously published MEK degrader 3; tolerability [1]: very well tolerated
O=C1CCC(N2C(=O)c3cccc(NCCNCCCONC(=O)c4ccc(F)c(F)c4Nc4ccc(I)cc4F)c3C2=O)C(=O)N1 (centres unmarked) [Compound 28, N-(3-((2-((2-(2,6-Dioxopiperidin-3-yl)-1,3-dioxoisoindolin-4-yl)-amino)ethyl)amino)propoxy)-3,4-difluoro-2-((2-fluoro-4-iodophenyl)amino)benzamide] | did not show obvious MEK1/2 degradation |  | GI50 (HT-29 cells): 300 to 500 nM
O=C1CCC(N2C(=O)c3cccc(NCCCNCCCONC(=O)c4ccc(F)c(F)c4Nc4ccc(I)cc4F)c3C2=O)C(=O)N1 (centres unmarked) [Compound 29, N-(3-((3-((2-(2,6-Dioxopiperidin-3-yl)-1,3-dioxoisoindolin-4-yl)-amino)propyl)amino)propoxy)-3,4-difluoro-2-((2-fluoro-4-iodophenyl)amino)benzamide] |  | did not improve the antiproliferation potency | 
O=C1CCC(N2C(=O)c3cccc(NCCCCNCCCONC(=O)c4ccc(F)c(F)c4Nc4ccc(I)cc4F)c3C2=O)C(=O)N1 (centres unmarked) [Compound 30, N-(3-((4-((2-(2,6-Dioxopiperidin-3-yl)-1,3-dioxoisoindolin-4-yl)-amino)butyl)amino)propoxy)-3,4-difluoro-2-((2-fluoro-4-iodophenyl)amino)benzamide] |  | did not improve the antiproliferation potency | 
O=C1CCC(N2C(=O)c3cccc(NCCCCCNCCCONC(=O)c4ccc(F)c(F)c4Nc4ccc(I)cc4F)c3C2=O)C(=O)N1 (centres unmarked) [Compound 31, N-(3-((5-((2-(2,6-Dioxopiperidin-3-yl)-1,3-dioxoisoindolin-4-yl)-amino)pentyl)amino)propoxy)-3,4-difluoro-2-((2-fluoro-4-iodophenyl)amino)benzamide] |  | did not improve the antiproliferation potency | 
O=C1CCC(N2C(=O)c3cccc(NCCCCCCNCCCONC(=O)c4ccc(F)c(F)c4Nc4ccc(I)cc4F)c3C2=O)C(=O)N1 (centres unmarked) [Compound 32, N-(3-((6-((2-(2,6-Dioxopiperidin-3-yl)-1,3-dioxoisoindolin-4-yl)-amino)hexyl)amino)propoxy)-3,4-difluoro-2-((2-fluoro-4-iodophenyl)amino)benzamide] |  | did not improve the antiproliferation potency | 
O=C1CCC(N2C(=O)c3cccc(NCCCCCCCNCCCONC(=O)c4ccc(F)c(F)c4Nc4ccc(I)cc4F)c3C2=O)C(=O)N1 (centres unmarked) [Compound 33, N-(3-((7-((2-(2,6-Dioxopiperidin-3-yl)-1,3-dioxoisoindolin-4-yl)-amino)heptyl)amino)propoxy)-3,4-difluoro-2-((2-fluoro-4-iodophenyl)amino)benzamide] |  | did not improve the antiproliferation potency | 
O=C1CCC(N2C(=O)c3cccc(NCCCCCCCCNCCCONC(=O)c4ccc(F)c(F)c4Nc4ccc(I)cc4F)c3C2=O)C(=O)N1 (centres unmarked) [Compound 34, N-(3-((8-((2-(2,6-Dioxopiperidin-3-yl)-1,3-dioxoisoindolin-4-yl)-amino)octyl)amino)propoxy)-3,4-difluoro-2-((2-fluoro-4-iodophenyl)amino)benzamide] |  | did not improve the antiproliferation potency | 
O=C1CCC(N2C(=O)c3ccc(NCCCNCCCONC(=O)c4ccc(F)c(F)c4Nc4ccc(I)cc4F)cc3C2=O)C(=O)N1 (centres unmarked) [Compound 40, N-(3-((3-((2-(2,6-Dioxopiperidin-3-yl)-1,3-dioxoisoindolin-5-yl)amino)propyl)amino)propoxy)-3,4-difluoro-2-((2-fluoro-4-iodophenyl)amino)benzamide] | did not show obvious MEK1/2 degradation |  | GI50 (HT-29 cells): 300 to 500 nM
O=C1CCC(N2C(=O)c3ccc(NCCCCCNCCCONC(=O)c4ccc(F)c(F)c4Nc4ccc(I)cc4F)cc3C2=O)C(=O)N1 (centres unmarked) [Compound 42, N-(3-((5-((2-(2,6-Dioxopiperidin-3-yl)-1,3-dioxoisoindolin-5-yl)amino)pentyl)amino)propoxy)-3,4-difluoro-2-((2-fluoro-4-iodophenyl)amino)benzamide] | significant selectivity at degrading MEK2 over MEK1 |  | GI50 (HT-29 cells): 300 to 500 nM
O=C1CCC(N2C(=O)c3ccc(NCCCCCCCNCCCONC(=O)c4ccc(F)c(F)c4Nc4ccc(I)cc4F)cc3C2=O)C(=O)N1 (centres unmarked) [Compound 44, N-(3-((7-((2-(2,6-Dioxopiperidin-3-yl)-1,3-dioxoisoindolin-5-yl)amino)heptyl)amino)propoxy)-3,4-difluoro-2-((2-fluoro-4-iodophenyl)amino)benzamide] | significantly degraded both MEK1 and MEK2 proteins |  | GI50 (HT-29 cells): 300 to 500 nM
O=C1CCC(N2C(=O)c3ccc(NCCCCCCCCNCCCONC(=O)c4ccc(F)c(F)c4Nc4ccc(I)cc4F)cc3C2=O)C(=O)N1 (centres unmarked) [Compound 45, N-(3-((8-((2-(2,6-Dioxopiperidin-3-yl)-1,3-dioxoisoindolin-5-yl)amino)octyl)amino)propoxy)-3,4-difluoro-2-((2-fluoro-4-iodophenyl)amino)benzamide] | significantly degraded both MEK1 and MEK2 proteins |  | 
O=C1CCC(N2C(=O)c3ccc(NCCOCCOCCOCCOCCNCCCONC(=O)c4ccc(F)c(F)c4Nc4ccc(I)cc4F)cc3C2=O)C(=O)N1 (centres unmarked) [Compound 49, N-((1-((2-(2,6-Dioxopiperidin-3-yl)-1,3-dioxoisoindolin-5-yl)amino)-3,6,9,12-tetraoxa-15-azaoctadecan-18-yl)oxy)-3,4-di-fluoro-2-((2-fluoro-4-iodophenyl)amino)benzamide] | significantly degraded both MEK1 and MEK2 proteins |  | GI50 (HT-29 cells): 300 to 500 nM
